Where two headings read alike, the source gives them in different places. Where a SMILES comes first, the peptide text is derived from it. Bridges are numbered along the chain shown (N, C = ends). [ ]: non-standard residue; d: D form. Gly(cPent) = N[C@H](C(=O)O)C1CCCC1; Tle = CC(C)(C)[C@H](N)C(=O)O; dDab = NCC[C@@H](N)C(=O)O; Orn = NCCC[C@H](N)C(=O)O; Dab = NCC[C@H](N)C(=O)O; Dap = NC[C@H](N)C(=O)O
Key:
[1] = system: Acinetobacter baumannii DSM 30008; assay type: cell-based
Summary of the method: (§1)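 Peptide activity was tested by NCCLS broth microdilution with slight modifications. Bacteria were diluted in cation-adjusted Mueller-Hinton II broth to approximately 10^6 CFU/mL against a 0.5 McFarland standard. They were then exposed to two-fold serial peptide dilutions in broth containing 0.002% final polysorbate 80.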

[2] = system: Escherichia coli ATCC 25922; assay type: cell-based
Summary of the method: as §1

[3] = system: Klebsiella pneumoniae ATCC 13883; assay type: cell-based
Summary of the method: as §1

[4] = system: human red blood cells (hRBC); assay: Hemolysis: hemolytic activity at 100 μg/mL, 1 h at 37° C.
Summary of the method: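 Peptides at 100 μg/mL incubated with washed 20% (v/v) human erythrocytes (~0.9×10^9 cells/mL) for 1 h at 37 °C with shaking. Released hemoglobin read at OD 540 nm in supernatant; 0% and 100% lysis from PBS/0.001% acetic acid and 2.5% Triton X-100.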

[5] = Mueller-Hinton II broth, 18-20 hours at 35° C.

SMILES	Acinetobacter baumannii DSM 30008 MIC ([1]; DSM 30008) [µg/mL]	Escherichia coli ATCC 25922 MIC ([2]; ATCC 25922) [µg/mL]	Klebsiella pneumoniae ATCC 13883 MIC ([3]; ATCC 13883) [µg/mL]	Hemolysis at 100 μg/mL ([4]; red cells of human, 1 h, 100) [%]	Acinetobacter baumannii DSM 30008 MIC [1, 5] [µg/mL]	Escherichia coli ATCC 25922 MIC [2, 5] [µg/mL]	Klebsiella pneumoniae ATCC 13883 MIC [3, 5] [µg/mL]	Hemolysis at 100 μg/mL ([4]; 100 μg/mL, 20% hRBC, 1 h at 37° C.) [%]
CC(C)C[C@@H]1NC(=O)[C@@H]2CCCN2C(=O)[C@@H](C)NC(=O)[C@H](CO)NC(=O)[C@@H]2CC(=O)NCC[C@H](NC1=O)C(=O)N[C@@H](Cc1ccc(O)cc1)C(=O)N[C@@H](CCN)C(=O)N[C@@H](CCN)C(=O)N[C@@H](CCN)C(=O)N[C@@H](CCN)C(=O)N[C@@H](Cc1c[nH]c3ccccc13)C(=O)N[C@@H](CCN)C(=O)N[C@@H](C(C)(C)C)C(=O)N2 [Example 26, cyclo(-Leu-Dab-Tyr-Dab-Dab-Dab-Dab-Trp-Dab-tBuGly-Asp-Ser-^DAla-Pro-)] (HELM PEPTIDE1{D.S.[dA].P.L.[Dab].Y.[Dab].[Dab].[Dab].[Dab].W.[Dab].[CC(C)(C)[C@H](N[*:1])C(=O)[*:2]]}$PEPTIDE1,PEPTIDE1,1:R3-6:R3|PEPTIDE1,PEPTIDE1,1:R1-14:R2$$$V2.0)	2	2	1	1	–	–	–	–
CC(C)C[C@@H]1NC(=O)[C@H](CCCNC(=N)N)NC(=O)[C@@H](CCN)NC(=O)[C@H](C(C)C)NC(=O)[C@@H]2CSSC[C@H](NC1=O)C(=O)N[C@@H](Cc1ccc(O)cc1)C(=O)N[C@@H](CC(N)=O)C(=O)N[C@@H](CCCN)C(=O)N[C@@H](CCN)C(=O)N[C@@H](CCN)C(=O)N[C@@H](Cc1c[nH]c3ccccc13)C(=O)N[C@@H](CO)C(=O)N[C@@H](Cc1ccc(O)cc1)C(=O)N2 [Example 55, cyclo(-Leu-Cys-Tyr-Asn-Orn-Dab-Dab-Trp-Ser-Tyr-Cys-Val-^DDab-Arg-)] (HELM PEPTIDE1{C.V.[NCC[C@@H](N[*:1])C(=O)[*:2]].R.L.C.Y.N.[Orn].[Dab].[Dab].W.S.Y}$PEPTIDE1,PEPTIDE1,1:R3-6:R3|PEPTIDE1,PEPTIDE1,1:R1-14:R2$$$V2.0)	1.25	1	1	0	–	–	–	–
CC(C)[C@@H]1NC(=O)[C@@H]2CCCN2C(=O)[C@@H](Cc2ccc(O)cc2)NC(=O)[C@H]([C@@H](C)O)NC(=O)[C@@H]2CSSC[C@H](NC1=O)C(=O)N[C@@H](Cc1ccc(O)cc1)C(=O)N[C@@H](CCN)C(=O)N[C@@H](CN)C(=O)N[C@@H](CCN)C(=O)N[C@@H](CCN)C(=O)N[C@@H](Cc1c[nH]c3ccccc13)C(=O)N[C@@H](CCN)C(=O)N[C@@H](C(C)(C)C)C(=O)N2 [Example 15, cyclo(-Val-Cys-Tyr-Dab-Dap-Dab-Dab-Trp-Dab-tBuGly-Cys-Thr-^DTyr-Pro-)] (HELM PEPTIDE1{C.T.[dY].P.V.C.Y.[Dab].[NC[C@H](N[*:1])C(=O)[*:2]].[Dab].[Dab].W.[Dab].[CC(C)(C)[C@H](N[*:1])C(=O)[*:2]]}$PEPTIDE1,PEPTIDE1,1:R3-6:R3|PEPTIDE1,PEPTIDE1,1:R1-14:R2$$$V2.0)	–	–	–	–	0.5	0.5	0.25	2
CC(C)C[C@@H]1NC(=O)[C@H](CCN)NC(=O)[C@@H](CCN)NC(=O)[C@H](CCCN)NC(=O)[C@H](CC(N)=O)NC(=O)[C@H](Cc2ccc(O)cc2)NC(=O)[C@@H]2CSSC[C@H](NC(=O)[C@H](C(C)(C)C)NC(=O)[C@H](CO)NC1=O)C(=O)N[C@@H](C(C)C)C(=O)N[C@H](CCN)C(=O)N[C@@H](CCCNC(=N)N)C(=O)N[C@@H](CC(C)C)C(=O)N2 [Example 4, cyclo(-Leu-Cys-Tyr-Asn-Orn-^DDab-Dab-Leu-Ser-tBuGly-Cys-Val-^DDab-Arg-)] (cyclo(CV[dDab]RLCYN[Orn][dDab][Dab]LS[Tle]); disulfide 1-6)	0.25	0.75	0.5	4	–	–	–	–
CC(C)[C@@H]1NC(=O)[C@@H]2CCCN2C(=O)[C@@H](C)NC(=O)[C@H]([C@@H](C)O)NC(=O)[C@H](CO)NC(=O)[C@H](C(C)(C)C)NC(=O)[C@H](CCN)NC(=O)[C@H](Cc2c[nH]c3ccccc23)NC(=O)[C@H](CCN)NC(=O)[C@@H](CCN)NC(=O)[C@H](CN)NC(=O)[C@H](CCN)NC(=O)[C@H](Cc2ccc(O)cc2)NC(=O)[C@H](CN)NC1=O [Example 45, cyclo(-Val-Dap-Tyr-Dab-Dap-^DDab-Dab-Trp-Dab-tBuGly-Ser-Thr-^DAla-Pro-)] (cyclo([Dab][Dap][dDab][Dab]W[Dab][Tle]ST[dA]PV[Dap]Y))	1	0.5	0.25	4	–	–	–	–
CC(C)C[C@@H]1NC(=O)[C@H](CCCNC(=N)N)NC(=O)[C@@H](CCN)NC(=O)[C@H](C(C)C)NC(=O)[C@@H]2CSSC[C@H](NC1=O)C(=O)N[C@@H](C(C)C)C(=O)N[C@@H](C(C)C)C(=O)N[C@@H](CCCN)C(=O)N[C@H](CCN)C(=O)N[C@@H](CCN)C(=O)N[C@@H](Cc1c[nH]c3ccccc13)C(=O)N[C@@H](Cc1ccc(O)cc1)C(=O)N[C@@H](Cc1ccc(O)cc1)C(=O)N2 [Example 20, cyclo(-Leu-Cys-Val-Val-Orn-^DDab-Dab-Trp-Tyr-Tyr-Cys-Val-^DDab-Arg-)] (HELM PEPTIDE1{C.V.V.[Orn].[NCC[C@@H](N[*:1])C(=O)[*:2]].[Dab].W.Y.Y.C.V.[NCC[C@@H](N[*:1])C(=O)[*:2]].R.L}$PEPTIDE1,PEPTIDE1,1:R3-10:R3|PEPTIDE1,PEPTIDE1,1:R1-14:R2$$$V2.0)	0.25	1	1	7	–	–	–	–
CC(C)[C@@H]1NC(=O)[C@@H]2CSSC[C@H](NC(=O)[C@H](C3CCCC3)NC(=O)[C@H](CCCNC(=N)N)NC(=O)[C@@H](CCN)NC1=O)C(=O)N[C@@H](Cc1ccc(O)cc1)C(=O)N[C@@H](CC(N)=O)C(=O)N[C@@H](CCCN)C(=O)N[C@H](CCN)C(=O)N[C@@H](CCN)C(=O)N[C@@H](Cc1c[nH]c3ccccc13)C(=O)N[C@@H](CO)C(=O)N[C@@H](Cc1ccc(O)cc1)C(=O)N2 [Example 59, cyclo(-Cpg-Cys-Tyr-Asn-Orn-^DDab-Dab-Trp-Ser-Tyr-Cys-Val-^DDab-Arg-)] (cyclo(CV[dDab]R[Gly(cPent)]CYN[Orn][dDab][Dab]WSY); disulfide 1-6)	0.75	1	0.75	1	–	–	–	–
CC(C)C[C@@H]1NC(=O)[C@H](CCCNC(=N)N)NC(=O)[C@@H](C)NC(=O)[C@H](C(C)C)NC(=O)[C@@H]2CSSC[C@H](NC1=O)C(=O)N[C@@H](Cc1ccc(O)cc1)C(=O)N[C@@H](CC(N)=O)C(=O)N[C@@H](CCCN)C(=O)N[C@H](CCN)C(=O)N[C@@H](CCN)C(=O)N[C@@H](Cc1c[nH]c3ccccc13)C(=O)N[C@@H](CCN)C(=O)N[C@@H](Cc1ccc(O)cc1)C(=O)N2 [Example 79, cyclo(-Leu-Cys-Tyr-Asn-Orn-^DDab-Dab-Trp-Dab-Tyr-Cys-Val-^DAla-Arg-)] (HELM PEPTIDE1{C.V.[dA].R.L.C.Y.N.[Orn].[NCC[C@@H](N[*:1])C(=O)[*:2]].[Dab].W.[Dab].Y}$PEPTIDE1,PEPTIDE1,1:R3-6:R3|PEPTIDE1,PEPTIDE1,1:R1-14:R2$$$V2.0)	1.5	1	1	1	–	–	–	–
CC(C)[C@@H]1NC(=O)[C@@H]2CCCN2C(=O)[C@@H](C)NC(=O)[C@H](CO)NC(=O)[C@@H]2CC(=O)NCC[C@H](NC1=O)C(=O)N[C@@H](Cc1ccc(O)cc1)C(=O)N[C@@H](CCN)C(=O)N[C@@H](CN)C(=O)N[C@H](CCN)C(=O)N[C@@H](CCN)C(=O)N[C@@H](Cc1c[nH]c3ccccc13)C(=O)N[C@@H](CCN)C(=O)N[C@@H](C(C)(C)C)C(=O)N2 [Example 27, cyclo(-Val-Dab-Tyr-Dab-Dap-^DDab-Dab-Trp-Dab-tBuGly-Asp-Ser-^DAla-Pro-)] (cyclo(DS[dA]PV[Dab]Y[Dab][Dap][dDab][Dab]W[Dab][Tle]); lactam 1-6)	1	0.5	0.5	2	–	–	–	–
CC(C)C[C@@H]1NC(=O)[C@@H]2CCCN2C(=O)[C@@H](CCN)NC(=O)[C@H](CO)NC(=O)[C@H](C(C)C)NC(=O)[C@H](C(C)(C)C)NC(=O)[C@@H]2CC(=O)NCC[C@H](NC(=O)[C@H](Cc3ccc(O)cc3)NC(=O)[C@H](Cc3ccc(O)cc3)NC1=O)C(=O)N[C@@H](CCCN)C(=O)N[C@H](CCN)C(=O)N[C@@H](CCN)C(=O)N[C@@H](Cc1c[nH]c3ccccc13)C(=O)N2 [Example 41, cyclo(-Leu-Tyr-Tyr-Dab-Orn-^DDab-Dab-Trp-Asp-tBuGly-Val-Ser-^DDab-Pro-)] (cyclo(D[Tle]VS[dDab]PLYY[Dab][Orn][dDab][Dab]W); lactam 1-10)	2	2	1	2	–	–	–	–
